One test addresses T1, AgOr1 (Anopheles gambiae, UniProt Q8WTE7).
T1 construct: expressed in transfected cells; host or cells: Transgenic Drosophila, ab3A olfactory receptor neuron lacking Or22a/Or22b (Δhalo), GAL4-UAS
T1 sequence (Q8WTE7 1-417): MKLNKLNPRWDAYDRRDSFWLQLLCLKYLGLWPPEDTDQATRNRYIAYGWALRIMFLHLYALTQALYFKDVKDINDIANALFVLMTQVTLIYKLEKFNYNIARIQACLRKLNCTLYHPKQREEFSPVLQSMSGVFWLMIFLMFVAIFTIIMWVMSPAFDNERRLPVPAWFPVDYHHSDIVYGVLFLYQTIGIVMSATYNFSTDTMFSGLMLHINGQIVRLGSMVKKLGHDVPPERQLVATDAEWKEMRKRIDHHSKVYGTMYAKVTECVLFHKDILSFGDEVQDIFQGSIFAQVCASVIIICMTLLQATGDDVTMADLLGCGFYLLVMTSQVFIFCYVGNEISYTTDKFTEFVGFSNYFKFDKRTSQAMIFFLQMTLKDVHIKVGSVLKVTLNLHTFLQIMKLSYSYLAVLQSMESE
T1 sequence (Q9VNB5 1-486 partner): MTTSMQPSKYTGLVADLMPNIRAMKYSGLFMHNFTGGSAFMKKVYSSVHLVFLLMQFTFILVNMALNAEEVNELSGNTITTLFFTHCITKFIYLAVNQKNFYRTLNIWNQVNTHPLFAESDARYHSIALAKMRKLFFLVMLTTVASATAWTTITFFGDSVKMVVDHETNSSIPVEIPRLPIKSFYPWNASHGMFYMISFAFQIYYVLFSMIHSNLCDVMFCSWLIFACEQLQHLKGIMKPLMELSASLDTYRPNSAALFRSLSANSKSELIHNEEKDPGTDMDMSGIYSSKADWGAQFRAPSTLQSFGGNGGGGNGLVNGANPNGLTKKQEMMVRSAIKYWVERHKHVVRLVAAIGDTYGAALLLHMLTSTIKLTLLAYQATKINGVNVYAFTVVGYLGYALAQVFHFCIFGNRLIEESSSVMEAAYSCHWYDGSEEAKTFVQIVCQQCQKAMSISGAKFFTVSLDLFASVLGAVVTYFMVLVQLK
Description: Single-unit electrophysiology of Drosophila ab3A neuron (Δhalo) expressing AgOr1. The following applies: liquid odors diluted 10^−4, solid odors 0.2 mg/ml in paraffin oil, 0.5 s pulse, FIG. 1a. The test is classed as in vivo. The protocol: (§1) In summary, odorant receptors are introduced specifically into Δab3A using the GAL4/UAS system and Or22a-GAL4 is used to drive expression from a UAS-Or construct. The odorant response of the neuron (Δab3A:OrX) is assayed electrophysiologically.
(§2) To investigate the function of the A. gambiae odorant receptor genes AgOr1 and AgOr2 directly, these genes were expressed in the Drosophila olfactory receptor neuron that lacks odor response due to the deletion of its endogenous receptor genes, Or22a and Or22b using an Or22a promoter and the GAL4-UAS system.
(§3) AgOr1 and AgOr2 were expressed in the Δhalo background using the GAL4-UAS system. Specifically AgOr1 or AgOr2 was placed under the control of a UAS and expressed using the 22a-GAL4 driver so as to drive its expression in ab3A cells. […]
(§4) Action potentials of the ORNs in a sensillum were recorded by placing an electrode through the sensillum wall into contact with the lymph that bathes the dendrites. […] Recordings were analyzed offline in IGOR-Pro (WaveMetrics, Lake Oswego, Oreg.).
(§5) Odor stimuli were presented from Pasteur pipettes holding solutions of chemicals in paraffin oil on filter paper. […] Responses of the ab3A neurons were quantified by subtracting the number of impulses (i.e., spikes) in 500 ms of spontaneous activity from the number in the 500 ms after the onset of odor stimulation (FIG. 1).

A further test concerns the target T2, AgOr2 (Anopheles gambiae, UniProt Q8WTE6).
T2 construct: expressed in transfected cells; host or cells: Transgenic Drosophila, ab3A olfactory receptor neuron lacking Or22a/Or22b (Δhalo), GAL4-UAS
T2 sequence (Q8WTE6 1-378): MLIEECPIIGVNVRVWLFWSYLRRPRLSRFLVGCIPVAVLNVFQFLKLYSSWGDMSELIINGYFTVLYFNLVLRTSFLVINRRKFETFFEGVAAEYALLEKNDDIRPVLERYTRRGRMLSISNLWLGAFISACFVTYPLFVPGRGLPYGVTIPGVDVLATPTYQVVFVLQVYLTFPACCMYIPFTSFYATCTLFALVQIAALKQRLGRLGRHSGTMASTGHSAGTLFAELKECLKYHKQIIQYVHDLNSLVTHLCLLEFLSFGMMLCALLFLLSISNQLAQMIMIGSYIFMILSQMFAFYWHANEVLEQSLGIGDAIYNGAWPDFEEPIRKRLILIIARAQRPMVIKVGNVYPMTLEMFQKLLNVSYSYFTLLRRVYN
T2 sequence (Q9VNB5 1-486 partner): T1 sequence (Q9VNB5 1-486 partner)
Put plainly: Single-unit electrophysiology of Drosophila ab3A neuron (Δhalo) expressing AgOr2. The following applies: liquid odors diluted 10^−4, solid odors 0.2 mg/ml in paraffin oil, 0.5 s pulse, FIG. 1b. The test is classed as in vivo. The procedure: as §1, §2, §3, §4, §5

Test [1] deals with Glossina morsitans morsitans. The following applies: Vale et al., 1988; cited from earlier work.

The structures appear in SMILES notation.

`Cc1ccc(O)cc1` [4-methylphenol]: the “odor response of mutant flies expressing AgOr1” value at AgOr1 is given as “strong response”. For the same compound, the “odor response conferred by AgOr2” value on AgOr2 is “not”. Moreover, the “effectiveness of traps for the tsetse fly” value in test [1] is listed as “increase the effectiveness of traps”.

These data come from patent US20070157323A1, “In vivo odorant receptor systems and their uses” (priority 2003, published 2007).
